Data as given in ChEMBL document CHEMBL4813922, “Discovery of a novel small-molecule inhibitor of Fam20C that induces apoptosis and inhibits migration in triple negative breast cancer” (Eur J Med Chem, 2021).
Active and inactive are the calls of the source. The calls are words filed in the database; no cut-off is given here.

Tests used:
[1] = system: MDA-MB-231; test: Inhibition of cell migration in human MDA-MB-231 cells assessed as downregulation of MMP-2 protein expression at 2.5 to 5 uM measured after 24 hrs by western blot assay; format: functional, cell-based; details: dose 2.5-5 µM
[2] = system: MDA-MB-231; test: Induction of apoptosis in human MDA-MB-231 cells assessed as upregulation of cleaved caspase 3 level at 2.5 to 5 uM measured after 24 hrs by western blot assay; format: functional, cell-based; details: dose 2.5-5 µM
[3] = biological target: T1, Extracellular serine/threonine protein kinase FAM20C (Homo sapiens, UniProt Q8IXL6); test: Inhibition of Fam20C (unknown origin) assessed as reduction in inorganic phosphate release in presence of ATP measured by Malachite green phosphate staining based micro plate reader assay
T1 sequence (Q8IXL6 whole entry): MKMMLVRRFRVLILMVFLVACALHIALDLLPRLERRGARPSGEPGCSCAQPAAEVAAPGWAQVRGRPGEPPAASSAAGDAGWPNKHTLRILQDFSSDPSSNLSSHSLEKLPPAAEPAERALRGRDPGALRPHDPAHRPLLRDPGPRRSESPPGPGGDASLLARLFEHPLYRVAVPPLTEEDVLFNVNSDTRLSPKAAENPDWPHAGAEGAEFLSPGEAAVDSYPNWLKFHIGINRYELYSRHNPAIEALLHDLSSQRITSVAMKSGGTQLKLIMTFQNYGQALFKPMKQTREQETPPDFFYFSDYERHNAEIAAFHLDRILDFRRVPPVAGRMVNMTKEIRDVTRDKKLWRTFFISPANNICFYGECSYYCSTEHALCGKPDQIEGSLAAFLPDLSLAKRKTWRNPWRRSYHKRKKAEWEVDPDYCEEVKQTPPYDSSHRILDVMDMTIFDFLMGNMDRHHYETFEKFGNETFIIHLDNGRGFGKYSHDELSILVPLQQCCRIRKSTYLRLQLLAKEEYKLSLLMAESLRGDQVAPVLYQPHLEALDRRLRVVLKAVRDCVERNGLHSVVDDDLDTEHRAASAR

[4] = system: MDA-MB-231; test: Inhibition of cell migration in human MDA-MB-231 cells assessed as upregulation of E-cadherin protein expression at 2.5 to 5 uM measured after 24 hrs by western blot assay; format: functional, cell-based; details: dose 2.5-5 µM
[5] = system: MDA-MB-231; test: Induction of apoptosis in human MDA-MB-231 cells assessed as early apoptotic cells at 2.5 uM measured after 24 hrs by Annexin V-FITC/PI staining based flow cytometry (reference value: 2%); format: functional
[6] = system: MDA-MB-231; test: Inhibition of cell migration in human MDA-MB-231 cells assessed as downregulation of MMP-2 protein expression at 2.5 uM measured after 24 hrs by immunofluorescence assay; format: functional, cell-based
[7] = system: MDA-MB-231; test: Antitumour activity against human MDA-MB-231 cells xenografted in Balb/c mouse assessed as decrease in Ki-67 expression in tumor at 50 mg/kg, ig measured after 14 days by immunohistochemistry method; format: functional, organism-based; details: time 14.0 day
[8] = system: MDA-MB-468; test: Antiproliferative activity against human MDA-MB-468 cells measured by MTT assay; format: functional, cell-based
[9] = system: MDA-MB-231; test: Induction of apoptosis in human MDA-MB-231 cells assessed as viable cells at 2.5 uM measured after 24 hrs by Annexin V-FITC/PI staining based flow cytometry (reference value: 94.3%); format: functional; details: read-out: Activity
[10] = system: MDA-MB-231; test: Antitumour activity against human MDA-MB-231 cells xenografted in Balb/c mouse assessed as upregulation of Bax protein expression in tumor at 25 to 50 mg/kg, ig measured after 14 days by western blot method; format: functional, organism-based; details: dose 25-50 mg/kg, time 14.0 day
[11] = system: MDA-MB-231; test: Inhibition of colony formation in human MDA-MB-231 cells at 5 uM measured after 2 weeks by crystal violet staining based analysis; format: functional, cell-based
[12] = system: MDA-MB-231; test: Antiproliferative activity against human MDA-MB-231 cells measured by MTT assay; format: functional, cell-based
[13] = system: MCF-10A; test: Cytotoxicity against human MCF-10A cells assessed as inhibition of cell proliferation at 0.625 to 40 uM measured by MTT assay; format: cell-based; details: dose 0.625-40 µM
[14] = system: MDA-MB-231; test: Inhibition of cell migration in human MDA-MB-231 cells assessed as upregulation of E-cadherin protein expression at 2.5 uM measured after 24 hrs by immunofluorescence assay; format: functional, cell-based
[15] = system: MDA-MB-231; test: Antitumour activity against human MDA-MB-231 cells xenografted in Balb/c mouse assessed as increase in cleaved caspase 3 level in tumor at 25 to 50 mg/kg, ig measured after 14 days by western blot method; format: functional, organism-based; details: dose 25-50 mg/kg, time 14.0 day
[16] = Toxicity in Balb/c mouse xenografted with human MDA-MB-231 cells assessed as changes in body weight at 25 mg/kg, ig measured after 14 days; format: organism-based; details: in vivo, po, 336 h, time 14 day
[17] = system: MDA-MB-231; test: Inhibition of cell migration in human MDA-MB-231 cells assessed as decrease in wound closure at 2.5 uM measured after 24 hrs by scratch assay; format: functional, cell-based
[18] = system: MDA-MB-231; test: Inhibition of cell migration in human MDA-MB-231 cells at 2.5 uM measured after 12 hrs by Transwell assay; format: functional, cell-based
[19] = system: MDA-MB-231; test: Antitumour activity against human MDA-MB-231 cells xenografted in Balb/c mouse assessed as reduction in tumor weight at 25 to 50 mg/kg, ig for 14 days; format: functional, organism-based; details: dose 25-50 mg/kg, time 14.0 day
[20] = system: MDA-MB-231; test: Induction of apoptosis in human MDA-MB-231 cells assessed as viable cells at 5 uM measured after 24 hrs by Annexin V-FITC/PI staining based flow cytometry (reference value: 94.3%); format: functional; details: read-out: Activity
[21] = system: MDA-MB-231; test: Induction of apoptosis in human MDA-MB-231 cells assessed as necrotic cells at 5 uM measured after 24 hrs by Annexin V-FITC/PI staining based flow cytometry (reference value: 0.64%); format: functional
[22] = system: MDA-MB-231; test: Induction of apoptosis in human MDA-MB-231 cells assessed as necrotic cells at 2.5 uM measured after 24 hrs by Annexin V-FITC/PI staining based flow cytometrY (reference value: 0.64%); format: functional
[23] = system: MDA-MB-231; test: Antitumour activity against human MDA-MB-231 cells xenografted in Balb/c mouse assessed as reduction in tumor volume at 25 to 50 mg/kg, ig for 14 days; format: functional, organism-based; details: dose 25-50 mg/kg, time 14.0 day
[24] = system: MDA-MB-231; test: Induction of apoptosis in human MDA-MB-231 cells assessed as late apoptotic cells at 2.5 uM measured after 24 hrs by Annexin V-FITC/PI staining based flow cytometry (reference value: 3.02%); format: functional
[25] = system: MCF7; test: Antiproliferative activity against human MCF7 cells measured by MTT assay; format: functional, cell-based
[26] = system: MDA-MB-231; test: Antitumour activity against human MDA-MB-231 cells xenografted in Balb/c mouse assessed as downregulation of Bcl-2 protein expression in tumor at 25 to 50 mg/kg, ig measured after 14 days by western blot method; format: functional, organism-based; details: dose 25-50 mg/kg, time 14.0 day
[27] = biological target: T2, Extracellular serine/threonine protein kinase FAM20C (Homo sapiens) (UniProt Q8IXL6); test: Inhibition of Fam20C (unknown origin) assessed as reduction in inorganic phosphate release in presence of ATP at 10 uM measured by Malachite green phosphate staining based micro plate reader assay relative to control
T2 sequence (whole entry): T1 sequence (Q8IXL6 whole entry)

[28] = system: MDA-MB-231; test: Induction of apoptosis in human MDA-MB-231 cells assessed as late apoptotic cells at 5 uM measured after 24 hrs by Annexin V-FITC/PI staining based flow cytometry (reference value: 3.02%); format: functional
[29] = Toxicity in Balb/c mouse xenografted with human MDA-MB-231 cells assessed as changes in body weight at 50 mg/kg, ig measured after 14 days; format: organism-based; details: in vivo, po, 336 h, time 14 day
[30] = system: MDA-MB-231; test: Induction of apoptosis in human MDA-MB-231 cells assessed as early apoptotic cells at 5 uM measured after 24 hrs by Annexin V-FITC/PI staining based flow cytometry (reference value: 2%); format: functional
[31] = system: MDA-MB-231; test: Induction of apoptosis in human MDA-MB-231 cells assessed as downregulation of Bcl-2 protein expression at 2.5 to 5 uM measured after 24 hrs by western blot assay; format: functional, cell-based; details: dose 2.5-5 µM
[32] = system: MDA-MB-231; test: Induction of apoptosis in human MDA-MB-231 cells assessed as DNA condensation measured after 24 hrs by Hoechst 33258 staining based flourescence microscopic analysis; format: functional, cell-based
[33] = system: MDA-MB-231; test: Induction of apoptosis in human MDA-MB-231 cells assessed as upregulation of Bax protein expression at 2.5 to 5 uM measured after 24 hrs by western blot assay; format: functional, cell-based; details: dose 2.5-5 µM

## COc1ccc(S(=O)(=O)Nc2ccc(Nc3nccc(Nc4cc(OC)c(OC)c(OC)c4)n3)cc2)cc1
[1]
  inhibition: Active
[2]
  Activity: Active
[3]
  IC50: 6.24 µM
[4]
  inhibition: Active
[5]
  Activity: 10.7%
[6]
  inhibition: Active
[7]
  Activity: Active
[8]
  IC50: 10.3 µM
[9]
  viability at 2.5 µM: 70.8%
[10]
  Activity: Active
[11]
  inhibition: Active
[12]
  IC50: 5.99 µM
[13]
  Activity: Non-Toxic
[14]
  inhibition: Active
[15]
  Activity: Active
[16]
  Activity: Non-Toxic
[17]
  inhibition: Active
[18]
  inhibition: Active
[19]
  Activity: Active
[20]
  viability at 5 µM: 42%
[21]
  Activity: 8.89%
[22]
  Activity: 3.23%
[23]
  Activity: Active
[24]
  Activity: 15.3%
[25]
  IC50: 9.7 µM
[26]
  Activity: Active
[27]
  inhibition: 68%
[28]
  Activity: 33.2%
[29]
  Activity: Non-Toxic
[30]
  Activity: 15.9%
[31]
  Activity: Active
[32]
  Activity: Active
[33]
  Activity: Active

## Cc1cc(Nc2ccc(F)cc2)nc(Nc2ccc(NS(=O)(=O)c3ccccc3OC(F)(F)F)cc2)n1
[8]
  IC50: 42.2 µM
[12]
  IC50: 23.8 µM
[25]
  IC50: > 50 µM
[27]
  inhibition: 23%

## COc1ccc(S(=O)(=O)Nc2ccc(Nc3nc(C)cc(Nc4ccc(OC)c(O)c4)n3)cc2)cc1
[8]
  IC50: > 50 µM
[12]
  IC50: > 50 µM
[25]
  IC50: > 50 µM
[27]
  inhibition: 11%

## COc1cc(Nc2ccnc(Nc3ccc(NS(=O)(=O)c4ccc(C)cc4)cc3)n2)cc(OC)c1OC
[8]
  IC50: 46.8 µM
[12]
  IC50: 17.3 µM
[25]
  IC50: > 50 µM
[27]
  inhibition: 28%

## COc1ccc(S(=O)(=O)Nc2ccc(Nc3nccc(-c4ccccc4)n3)cc2)cc1
[8]
  IC50: > 50 µM
[12]
  IC50: > 50 µM
[25]
  IC50: > 50 µM
[27]
  inhibition: 10%

## Cc1ccc(S(=O)(=O)Nc2ccc(Nc3nc(Nc4ccc(F)cc4)cc(C(F)(F)F)n3)cc2)c(Cl)c1
[8]
  IC50: > 50 µM
[12]
  IC50: 27.8 µM
[25]
  IC50: > 50 µM
[27]
  inhibition: 18%

## COc1ccc(Nc2cc(C(F)(F)F)nc(Nc3ccc(NS(=O)(=O)c4ccc(C(F)(F)F)cc4)cc3)n2)cc1
[8]
  IC50: 25.3 µM
[12]
  IC50: 23.3 µM
[25]
  IC50: 17.3 µM
[27]
  inhibition: 19%

## COc1ccc(Nc2cc(C(F)(F)F)nc(Nc3ccc(NS(=O)(=O)c4c(Cl)cc(C)cc4OC)cc3)n2)cc1
[8]
  IC50: > 50 µM
[12]
  IC50: > 50 µM
[25]
  IC50: > 50 µM
[27]
  inhibition: 11%

## COc1ccc(Nc2ccnc(Nc3ccc(NS(=O)(=O)c4ccc(OC)cc4)cc3)n2)cc1
[8]
  IC50: 14.8 µM
[12]
  IC50: 6.87 µM
[25]
  IC50: 29 µM
[27]
  inhibition: 25%

## Cc1cc(Nc2ccc(F)cc2)nc(Nc2ccc(NS(=O)(=O)c3ccc(C(F)(F)F)cc3)cc2)n1
[8]
  IC50: 32.3 µM
[12]
  IC50: 17.5 µM
[25]
  IC50: 18 µM
[27]
  inhibition: 24%

## COc1ccc(Nc2cc(C(F)(F)F)nc(Nc3ccc(NS(=O)(=O)c4ccccc4OC(F)(F)F)cc3)n2)cc1
[8]
  IC50: > 50 µM
[12]
  IC50: 32.9 µM
[25]
  IC50: 14 µM
[27]
  inhibition: 18%
